{"source": "patent US20250312258A1", "about": "“2,3-PYRROLIDINEDIONE CONJUGATES AND METHODS OF USING THEREOF” (North Carolina State University, priority 2022, published 2025)", "key": {"VRE": {"test_system": "VRE", "experiment": "MIC / in vitro activity against VRE strain panel", "format": "cell-based, Enterococcus spp."}, "ATCC 29212 E. faecalis": {"test_system": "ATCC 29212 E. faecalis", "experiment": "MIC against ATCC 29212 E. faecalis", "format": "cell-based"}, "Group A Strep": {"test_system": "Group A Strep", "experiment": "MIC against Group A Strep strain panel", "format": "cell-based"}, "MRSA": {"test_system": "MRSA", "experiment": "MIC against MRSA strain panel", "format": "cell-based", "conditions": "Staphylococcus aureus, the 4th table"}, "S. pneumoniae": {"test_system": "S. pneumoniae", "experiment": "MIC against S. pneumoniae strain panel", "format": "cell-based", "conditions": "Streptococcus pneumoniae"}, "VRSA": {"test_system": "VRSA", "experiment": "MIC against VRSA (Table 2)", "format": "cell-based", "conditions": "Staphylococcus aureus, read-out: MIC (VRSA)"}, "S. aureus 29213": {"test_system": "S. aureus 29213", "experiment": "Broth microdilution MIC, S. aureus 29213", "format": "cell-based, Staphylococcus aureus"}, "S. aureus 25923": {"test_system": "S. aureus 25923", "experiment": "Broth microdilution MIC, S. aureus 25923", "format": "cell-based, Staphylococcus aureus", "conditions": "Staphylococcus aureus, 25923, read-out: MIC (S. aureus 25923)"}}, "note": "Read-outs that look alike come from different tables or passages of the source."}
{"smiles": "CN[C@H](CC(C)C)C(=O)N[C@H]1C(=O)N[C@@H](CC(N)=O)C(=O)N[C@H]2C(=O)N[C@H]3C(=O)N[C@H](C(=O)N[C@H](C(=O)O)c4cc(O)cc(O)c4-c4cc3ccc4O)[C@H](O)c3ccc(c(Cl)c3)Oc3cc2cc(c3O[C@@H]2O[C@H](CO)[C@@H](O)[C@H](O)[C@H]2O[C@H]2C[C@](C)(N)[C@H](O)[C@H](C)O2)Oc2ccc(cc2Cl)[C@H]1O", "note": "[Vancomycin, vancomycin, reference compound]", "values": [{"measurement": "MIC", "setting": "VRE; 2574 VRE, the 6th table", "result": ">64", "unit": "µg/mL"}, {"measurement": "MIC", "setting": "VRE; 3053 VRE, the 6th table", "result": ">64", "unit": "µg/mL"}, {"measurement": "MIC", "setting": "VRE; 3183 (VRE), the 3rd table", "result": ">64", "unit": "µg/mL"}, {"measurement": "MIC", "setting": "VRE; 3183 VRE, the 6th table", "result": ">64", "unit": "µg/mL"}, {"measurement": "MIC", "setting": "VRE; 3190 VRE, the 6th table", "result": ">64", "unit": "µg/mL"}, {"measurement": "MIC", "setting": "VRE; 3191 VRE, the 6th table", "result": ">64", "unit": "µg/mL"}, {"measurement": "MIC", "setting": "VRE; 3222 (VRE, the 3rd table)", "result": ">64", "unit": "µg/mL"}, {"measurement": "MIC", "setting": "VRE; 3222 VRE, the 6th table", "result": ">64", "unit": "µg/mL"}, {"measurement": "MIC", "setting": "VRE; 3235 VRE, the 6th table", "result": ">64", "unit": "µg/mL"}, {"measurement": "MIC", "setting": "VRE; 3239 VRE, the 6th table", "result": ">64", "unit": "µg/mL"}, {"measurement": "MIC", "setting": "VRE; 3241 VRE, the 6th table", "result": ">64", "unit": "µg/mL"}, {"measurement": "MIC", "setting": "VRE; 3623 VRE, the 6th table", "result": ">64", "unit": "µg/mL"}, {"measurement": "MIC", "setting": "VRE; Enterococcus, VRE", "result": "> 64", "unit": "µg/mL"}, {"measurement": "MIC", "setting": "ATCC 29212 E. faecalis; ATCC 29212 E. faecalis, the 6th table", "result": 2, "unit": "µg/mL"}, {"measurement": "MIC", "setting": "ATCC 29212 E. faecalis; Enterococcus faecalis, ATCC29212", "result": 2, "unit": "µg/mL"}, {"measurement": "MIC", "setting": "Group A Strep", "result": 0.25, "unit": "µg/mL"}, {"measurement": "MIC", "setting": "Group A Strep; 2007-11 Group A Strep, the 8th table", "result": 0.25, "unit": "µg/mL"}, {"measurement": "MIC", "setting": "Group A Strep; 2007-28 Group A Strep, the 8th table", "result": 0.25, "unit": "µg/mL"}, {"measurement": "MIC", "setting": "Group A Strep; 2007-49 Group A Strep, the 8th table", "result": 0.25, "unit": "µg/mL"}, {"measurement": "MIC", "setting": "Group A Strep; 2007-73 Group A Strep, the 8th table", "result": 0.25, "unit": "µg/mL"}, {"measurement": "MIC", "setting": "Group A Strep; 2007-107 Group A Strep, the 8th table", "result": 0.25, "unit": "µg/mL"}, {"measurement": "MIC", "setting": "Group A Strep; 2007-1101 Group A Strep, the 8th table", "result": 0.25, "unit": "µg/mL"}, {"measurement": "MIC", "setting": "Group A Strep; 2008-06 Group A Strep, the 8th table", "result": 0.25, "unit": "µg/mL"}, {"measurement": "MIC", "setting": "Group A Strep; 2008-45 Group A Strep, the 8th table", "result": 0.25, "unit": "µg/mL"}, {"measurement": "MIC", "setting": "Group A Strep; 2008-818 Group A Strep, CA-MHB w/5% LHB, the 4th table", "result": 0.25, "unit": "µg/mL"}, {"measurement": "MIC", "setting": "Group A Strep; 2008-1565 Group A Strep, the 8th table", "result": 0.25, "unit": "µg/mL"}, {"measurement": "MIC", "setting": "Group A Strep; 2008-1692 Group A Strep, the 8th table", "result": 0.25, "unit": "µg/mL"}, {"measurement": "MIC", "setting": "Group A Strep; 2009-8 Group A Strep, the 8th table", "result": 0.25, "unit": "µg/mL"}, {"measurement": "MIC", "setting": "Group A Strep; 2009-37 Group A Strep, CA-MHB w/5% LHB, the 4th table", "result": 0.25, "unit": "µg/mL"}, {"measurement": "MIC", "setting": "Group A Strep; 2009-106 Group A Strep, the 8th table", "result": 0.25, "unit": "µg/mL"}, {"measurement": "MIC", "setting": "Group A Strep; 2009-109 Group A Strep, the 8th table", "result": 0.25, "unit": "µg/mL"}, {"measurement": "MIC", "setting": "Group A Strep; 2009-114 Group A Strep, the 8th table", "result": 0.25, "unit": "µg/mL"}, {"measurement": "MIC", "setting": "Group A Strep; 2009-136 Group A Strep, the 8th table", "result": 0.25, "unit": "µg/mL"}, {"measurement": "MIC", "setting": "MRSA; 6215 MRSA", "result": 1, "unit": "µg/mL"}, {"measurement": "MIC", "setting": "MRSA; 6217 MRSA", "result": 1, "unit": "µg/mL"}, {"measurement": "MIC", "setting": "MRSA; 6218 MRSA", "result": 1, "unit": "µg/mL"}, {"measurement": "MIC", "setting": "MRSA; 6220 MRSA", "result": 0.5, "unit": "µg/mL"}, {"measurement": "MIC", "setting": "MRSA; 6231 MRSA", "result": 0.5, "unit": "µg/mL"}, {"measurement": "MIC", "setting": "MRSA; AR-978 MRSA", "result": 1, "unit": "µg/mL"}, {"measurement": "MIC", "setting": "MRSA; AR-979 MRSA", "result": 1, "unit": "µg/mL"}, {"measurement": "MIC", "setting": "MRSA; AR-993 MRSA", "result": 1, "unit": "µg/mL"}, {"measurement": "MIC", "setting": "MRSA; AR-997 MRSA", "result": 1, "unit": "µg/mL"}, {"measurement": "MIC", "setting": "S. pneumoniae; ATCC49619, ATCC 49619 S. pneumoniae, CA-MHB w/5% LHB, the 4th table", "result": 0.25, "unit": "µg/mL"}, {"measurement": "MIC", "setting": "S. pneumoniae; ATCC49619, ATCC 49619 S. pneumoniae, the 7th table", "result": "≤ 0.125", "unit": "µg/mL"}, {"measurement": "MIC", "setting": "S. pneumoniae; CO314937 S. pneumoniae, CA-MHB w/5% LHB, the 4th table", "result": 0.25, "unit": "µg/mL"}, {"measurement": "MIC", "setting": "S. pneumoniae; CT3-5008 S. pneumoniae, the 7th table", "result": 0.25, "unit": "µg/mL"}, {"measurement": "MIC", "setting": "S. pneumoniae; CT3-5803 S. pneumoniae, the 7th table", "result": 0.25, "unit": "µg/mL"}, {"measurement": "MIC", "setting": "S. pneumoniae; CT3-8501 S. pneumoniae, the 7th table", "result": 0.25, "unit": "µg/mL"}, {"measurement": "MIC", "setting": "S. pneumoniae; CT4-3048 S. pneumoniae, the 7th table", "result": 0.5, "unit": "µg/mL"}, {"measurement": "MIC", "setting": "S. pneumoniae; CT4-9046 S. pneumoniae, the 7th table", "result": 0.25, "unit": "µg/mL"}, {"measurement": "MIC", "setting": "S. pneumoniae; CT4-9693 S. pneumoniae, the 7th table", "result": 0.25, "unit": "µg/mL"}, {"measurement": "MIC", "setting": "S. pneumoniae; CT5-6541 S. pneumoniae, the 7th table", "result": 0.25, "unit": "µg/mL"}, {"measurement": "MIC", "setting": "S. pneumoniae; CT5-8032 S. pneumoniae, the 7th table", "result": 0.5, "unit": "µg/mL"}, {"measurement": "MIC", "setting": "S. pneumoniae; CT5-9124 S. pneumoniae, the 7th table", "result": 0.25, "unit": "µg/mL"}, {"measurement": "MIC", "setting": "S. pneumoniae; CT6-0670 S. pneumoniae, the 7th table", "result": 0.5, "unit": "µg/mL"}, {"measurement": "MIC", "setting": "S. pneumoniae; CT6-7691 S. pneumoniae, the 7th table", "result": 0.25, "unit": "µg/mL"}, {"measurement": "MIC", "setting": "S. pneumoniae; CT0200-2241 S. pneumoniae, the 7th table", "result": 0.25, "unit": "µg/mL"}, {"measurement": "MIC", "setting": "S. pneumoniae; CT0200-2730 S. pneumoniae, the 7th table", "result": 0.25, "unit": "µg/mL"}, {"measurement": "MIC", "setting": "S. pneumoniae; MD77773 S. pneumoniae, CA-MHB w/5% LHB, the 4th table", "result": 0.5, "unit": "µg/mL"}, {"measurement": "MIC", "setting": "VRSA", "result": 64, "unit": "µg/mL"}, {"measurement": "MIC", "setting": "S. aureus 29213; Staphylococcus aureus, 29213, read-out: MIC (S. aureus 29213)", "result": 1, "unit": "µg/mL"}, {"measurement": "MIC", "setting": "S. aureus 29213; Staphylococcus aureus, ATCC 29213 / MRSA", "result": 0.5, "unit": "µg/mL"}, {"measurement": "MIC", "setting": "S. aureus 25923", "result": 2, "unit": "µg/mL"}]}
